Reference: paper PMC11024795 (GeoHealth, 2024)
Read-outs that look alike come from different tables or passages of the source.

Tests used:
[1] = tested on: NLRP3, ASC, Caspase-1, IL-1β, IL-18 mRNA in BV2 cells; test: RT-qPCR of NLRP3 inflammasome and inflammatory cytokine mRNA; type: cell-based; conditions: for expression of NLRP3, ASC, Caspase-1, IL-1β, IL-18 mRNA vs 0 μM OPPs / ASC mRNA expression, MCC950 intervention vs OPP alone / IL-1β mRNA expression, MCC950 intervention vs OPP alone / NLRP3 mRNA expression, MCC950 pre-treatment vs OPP alone: BV2 cells; for expression of NLRP3, ASC, Caspase-1, IL-1β, IL-18 mRNA vs 0 μM OPPs: 500 μM OPP, P < 0.0001; for ASC mRNA expression, MCC950 intervention vs OPP alone / IL-1β mRNA expression, MCC950 intervention vs OPP alone / NLRP3 mRNA expression, MCC950 pre-treatment vs OPP alone: OPP 500 μM
[2] = tested on: IL-1β and IL-18 in extracellular medium of BV2 cells; test: ELISA of IL-1β and IL-18 in culture supernatants; type: cell-based; conditions: P < 0.0001; for expression of IL-1β and IL-18 in the extracellular medium vs 0 μM OPPs: ELISA, BV2 cells, OPP 125, 250, 500 μM, 24 hr
BV2 cells [3] = test: IC50 of OPPs-induced cytotoxicity in BV2 cells; type: cell-based; conditions: for IC50: read-out: IC50 values of OPPs in BV2 cells
[4] = biological target: hNLRP3 LRR recombinant protein (Homo sapiens, UniProt Q96P20); test: Surface plasmon resonance; type: binding; conditions: for kon: read-out: association constant k a
Chain of hNLRP3 LRR recombinant protein (Q96P20 742-991 limits assumed): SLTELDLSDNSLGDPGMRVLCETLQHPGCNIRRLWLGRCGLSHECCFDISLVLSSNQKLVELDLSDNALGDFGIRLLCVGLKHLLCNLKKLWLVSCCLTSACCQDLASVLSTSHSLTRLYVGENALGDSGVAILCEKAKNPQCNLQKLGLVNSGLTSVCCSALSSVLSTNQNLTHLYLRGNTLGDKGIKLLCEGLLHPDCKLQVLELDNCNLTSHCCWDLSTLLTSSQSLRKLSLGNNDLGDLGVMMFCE

BV2 cells [5] = test: CCK-8 cell viability assay; type: cell-based; conditions: CCK-8, 125-1,000 μM, 24 hr; significant concentrations differ per compound
BV2 cells [6] = test: LDH-based cytotoxicity assay; type: cell-based; conditions: 125-1,000 μM, 24 hr, significant concentrations differ per compound
[7] = SPR, Biacore 8K, CM5 chip, 25°C

Row | Compound | activation of the NLRP3 inflammasome and associated inflammatory cytokine mRNA expression in OPPs-treated BV2 cells ([1]; MCC950 10 μM, OPPs 500 μM) | IL-1β and IL-18 expression in the extracellular medium of OPPs-treated BV2 cells ([2]; MCC950 10 μM vs OPPs treatment (125, 250, 500 μM)) | cytotoxicity induced by OPPs in BV2 cells (BV2 cells [3]; MCC950 10 μM intervention, from IC50 shift) | Caspase-1 and IL-18 mRNA expressions, MCC950 intervention vs OPP alone [1] | expression of NLRP3, ASC, Caspase-1, IL-1β, IL-18 mRNA vs 0 μM OPPs [1] | ASC mRNA expression, MCC950 intervention vs OPP alone ([1]; MCC950 10 μM) | IL-1β mRNA expression, MCC950 intervention vs OPP alone ([1]; MCC950 10 μM) | NLRP3 mRNA expression, MCC950 pre-treatment vs OPP alone ([1]; MCC950 10 μM) | expression of IL-1β and IL-18 in the extracellular medium vs 0 μM OPPs [2] | IC50 (BV2 cells [3]; BV2 cells, OPPs 24 hr) [µM] | association constant k a [4, 7] [M⁻¹ s⁻¹] | dissociation constant k d [4, 7] [s⁻¹] | Kd ([4]; read-out: affinity constant K D, SPR, Biacore 8K, CM5 chip, 25°C) [µM] | cell viability of BV2 cells vs 0 μM OPPs (BV2 cells [5]) | cytotoxicity (LDH) in BV2 cells vs 0 μM OPPs (BV2 cells [6]) | IC50 (BV2 cells [3]; Mus musculus, BV-2, 24 h) [µM] | Kd [4] [µM] | kon [4] [M⁻¹ s⁻¹] | affinity constant K D [4, 7]
1 | CC(C)(O)c1coc(S(=O)(=O)NC(=O)Nc2c3c(cc4c2CCC4)CCC3)c1 [MCC950, reference compound] | reduced | significantly reduced | markedly decrease |  |  |  |  |  |  |  |  |  |  |  |  |  |  |  | 
2 | COP(=O)(OC)OC(Br)C(Cl)(Cl)Br (stereo not shown) [dibrom] |  |  |  | significantly decreased | significantly increased | decreased | decreased | significant decrease | significantly increased | 585 | 76.5 | 0.206 | 2690 |  |  |  |  |  | 
3 | COP(=O)(OC)OC=C(Cl)Cl [dichlorvos] |  |  |  | significantly decreased | significantly increased | decreased | decreased | significant decrease | significantly increased |  |  | 0.00489 |  | significantly decreased | significantly increased | 274 | 1460 | 3.35 | 
4 | CNC(=O)CSP(=S)(OC)OC [dimethoate] |  |  |  | significantly decreased | significantly increased | decreased | decreased | significant decrease | significantly increased |  |  | 0.00529 |  | significantly decreased | significantly increased |  | 89.8 | 58.9 | 
5 | COP(=O)(OC)C(O)C(Cl)(Cl)Cl (stereo not shown) [dipterex] |  |  |  | significantly decreased | significantly increased | decreased | decreased | significant decrease | significantly increased | 410 |  |  |  | significantly decreased | significantly increased |  |  |  | No obvious binding
6 | COP(=S)(OC)Oc1ccc(SC)c(C)c1 [fenthion] |  |  |  | significantly decreased | significantly increased | decreased | decreased | significant decrease | significantly increased |  |  |  |  | significantly decreased | significantly increased | 2160 |  |  | No obvious binding
7 | CCOP(=O)(OCC)Oc1ccc([N+](=O)[O-])cc1 [paraoxon] |  |  |  | significantly decreased | significantly increased | decreased | decreased | significant decrease | significantly increased | 551 | 14.2 | 0.00461 |  | significantly decreased | significantly increased |  |  |  | 
